Measurements: the NIST ThermoML archive (doi:10.1016/j.jct.2003.09.010)
± gives the expanded uncertainty stated by the source.

Assay: mn = molality of the nth substance listed, in mol/kg
Conditions: 298.15 K, 101 kPa, Liquid

Row | mass density (m1 = 0.05) | mass density (m1 = 0.5) | SMILES | mass density (m1 = 1)
1 |  |  | CCCCCCCCCCCCCCCC[N+](C)(C)C.[Br-] [N,N,N-trimethyl-1-hexadecanaminium bromide] + O | 1004.43 ± 0.46 kg/m3
2 | 999.133 ± 0.27 kg/m3 [middle of 5 runs] | 1014.57 ± 0.3 kg/m3 [middle of 5 runs] | CCCCCCCCCCCCOS(=O)(=O)[O-].[Na+] [sodium dodecyl sulfate] + O | 1027.43 ± 0.33 kg/m3 [middle of 7 runs]
